In paper PMC10147923, “Pain-causing stinging nettle toxins target TMEM233 to modulate NaV1.7 function” (Nature Communications, 2023):
“And” between values parts separate entries of the source, which are not always exact repeats. Identical values can stand only once. Like-named read-outs stand apart in the source and are kept apart here. Positions of bridges follow the written chain, without caps; N, C: chain ends. Residues, ends and D or L forms follow the SMILES beside them. *: point of attachment. Biotin = O=C1N[C@H]2[C@H](CS[C@H]2CCCCC(=O)*)N1; PEG4 = NCCOCCOCCOCCOCCC(=O)O

Tests used:
NaV1.7/TMEM233 [1] = molecular target: T1, NaV1.7/TMEM233 (Homo sapiens, UniProt B4DJY2+Q15858); format: cell-based; details: best-fit value, log(agonist) vs. response -- variable slope (four parameters)
Protocol: HEK293-NaV1.7 cells were transfected with TMEM233, CRELD1, LMAN2L, MMGT1, RNF121 and STT3B and co-transfected with five plasmids coding for the Glycosylphosphatidylinositol (GPI) complex (GPAA1, PIGK, PIGS, PIGU, PIGT) using Lipofectamine 2000. After 24 h, transfected cells were harvested and plated at a density of 10,000–15,000 cells per well on black-walled 384-well imaging plates. Plated cells were cultured for a further 24 h at 37 °C and 5% CO2. FLIPR (Fluorescent Imaging Plate Reader) Red membrane potential assay dye (Molecular Devices, California, USA) was diluted in physiological salt solution according to the manufacturer’s instructions (PSS, in mM: NaCl 140, glucose 11.5, HEPES 10, KCl 5.9, MgCl2 1.4, NaH2PO4 1.2, NaHCO3 5, CaCl2 1.8, pH 7.4). Growth medium was removed from the plate and replaced with 20 µL of FLIPR Red membrane potential assay dye per well and incubated in the dark at 37 °C for 60 min. […] Fluorescence responses to ExTxA were computed as the maximum change in fluorescence over baseline (ΔF/F0) using ScreenWorks (Molecular Devices, Version 5.1.2.94).

NaV1.7 [2] = molecular target: T2, NaV1.7 (Homo sapiens, UniProt Q15858); experiment: Recovery from fast inactivation, HEK293-NaV1.7 with peptide in intracellular solution; format: cell-based
Protocol: To determine recovery from fast inactivation, a 20 ms pulse to 0 mV from a holding potential of −90 mV was used to induce fast inactivation. A subsequent recovery period, ranging from 1 ms to 2216 ms in 50% increments at −90 mV, was followed by a last 20 ms test pulses to 0 mV to determine the time-dependence of recovery from fast inactivation. The proportion of available channels was determined by normalizing peak currents from the last to the first pulse. A two-phase exponential equation was fit to the normalized current, plotted as a function of time, to determine the time constants τ1 and τ2 of recovery from fast inactivation.

TE-671 cells = details: veratridine 5 µM, ouabain 20 nM
NaV1.7/TMEM233 [3] = molecular target: T1, NaV1.7/TMEM233; experiment: Proximity ligation assay NaV1.7 and TMEM233; details: Fig 5e
Protocol: HEK293 cells stably expressing β1/β2 were transiently transfected in T25 flasks using Lipofectamine 2000 with plasmids encoding GFP (0.35 μg) as a transfection control, as well as N-terminal HA-tagged TMEM233 (0.35 μg) and N-terminal FLAG- tagged NaV1.7 (1.0 μg) alone or in combination. The total amount of plasmid DNA/T25 flask was kept constant at 1.7 μg flask using empty pcDNA3.1 plasmid as required. After 24 h incubation at 37 °C, cells were plated on PDL-coated glass coverslips and cultured for a further 24 h. Cells were washed once using sterile phosphate-buffered saline, fixed with 4% formaldehyde for 5 min, permeabilized with 0.1% Triton-X 100 in PSS, blocked using proximity ligation bocking buffer (Sigma DUO82007) and incubated for 1 h with anti-FLAG (1:1000; Sigma F1804) and anti-HA (1:1000; Sigma H6908) antibodies in Duolink antibody diluent. Permeabilized cells were then washed twice with wash buffer A at room temperature for 5 min. Anti-mouse PLUS (Sigma DUO92001) and anti-rabbit MINUS (Sigma DUO92005) probes were diluted 1:5 in Duolink antibody diluent and incubated with cells for 1 h at 37 °C. Cells were then washed with wash buffer A at room temperature for 5 min twice and incubated with ligase diluted 1:40 in ligation buffer. After incubation at 37 °C for 30 mins, cells were washed twice with wash buffer A. Polymerase was diluted 1:80 in amplification buffer and incubated with cells for 100 mins at 37 °C. Cells were subsequently washed with wash buffer B twice for 10 mins and mounted with Duolink In Situ mounting media with DAPI. Cells were imaged on a Zeiss AxioImage M2 with Apotome2 and Axiocam 506 camera. Proximity ligation assay signal (PLA particles) in GFP-positive cells were quantified using ImageJ in collapsed stacks from 3–6 random images obtained per coverslip (Image>Type>8-bit; Image>Adjust>Threshold; Image>Analyze>Analyze Particles). Particles size was set to 0.0003–∞ and circularity to 0.00–1.00. The average number of particles/GFP-positive cells from three independent experiments was analyzed by One-way ANOVA.

[4] = tested on: NaV1.7 endogenously expressed in TE-671 cells; experiment: Persistent NaV current, TE-671 cells (automated patch clamp); format: cell-based
[5] = tested on: total and TTX-s NaV current in wild-type DRG neurons; experiment: Persistent total NaV current, manual patch clamp, mouse DRG neurons; format: cell-based
NaV1.7 [6] = molecular target: T2, NaV1.7; format: cell-based
NaV1.7/TMEM233 [7] = molecular target: T1, NaV1.7/TMEM233; experiment: ExTxA-488 binding assay, NaV1.7/TMEM233
Protocol: (§1) HEK293 cells (untransfected controls, or transfected with TMEM233, NaV1.7 or both TMEM233 and NaV1.7), were incubated in suspension with ExTxA conjugated to Alexa Fluor 488 (ExTxA-488) in assay buffer (250 mM NaCl, 25 mM HEPES, pH 7) for 30 min at 4 °C. Unbound ExTxA-488 was removed by washing cells three times with assay buffer. Cells were plated at a density of 100,000 cells per well in a volume of 50 µL in a 384-well OptiPlate (PerkinElmer, Massachusetts, USA). Fluorescence intensity (excitation 490 nm; emission 520 nm) was assessed using an Infinite M1000 Pro (Tecan, Männedorf, Switzerland). Concentration-response curves were fitted using the log (agonist) vs. response—variable slope (four parameters) equation and normalized to the largest fitted top from amongst the four groups as computed by GraphPad Prism Version 9.4.1.

TMEM233 = TMEM233 (Homo sapiens, UniProt B4DJY2); experiment: ExTxA-488 binding assay, TMEM233
Protocol: as §1

HEK293 cells = experiment: ExTxA-488 binding assay, untransfected/mock HEK293; set-up: species or system human
Protocol: as §1

NaV1.7/TMEM233 [8] = molecular target: T1, NaV1.7/TMEM233; format: cell-based
NaV1.7 [9] = molecular target: T2, NaV1.7; experiment: ExTxA-488 binding assay, NaV1.7
Protocol: as §1

TMEM233, sequence (B4DJY2 whole entry): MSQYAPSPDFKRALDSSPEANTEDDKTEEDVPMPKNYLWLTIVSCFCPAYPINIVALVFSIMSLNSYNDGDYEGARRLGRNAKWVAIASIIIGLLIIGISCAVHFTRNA
T2 sequence (Q15858 whole entry): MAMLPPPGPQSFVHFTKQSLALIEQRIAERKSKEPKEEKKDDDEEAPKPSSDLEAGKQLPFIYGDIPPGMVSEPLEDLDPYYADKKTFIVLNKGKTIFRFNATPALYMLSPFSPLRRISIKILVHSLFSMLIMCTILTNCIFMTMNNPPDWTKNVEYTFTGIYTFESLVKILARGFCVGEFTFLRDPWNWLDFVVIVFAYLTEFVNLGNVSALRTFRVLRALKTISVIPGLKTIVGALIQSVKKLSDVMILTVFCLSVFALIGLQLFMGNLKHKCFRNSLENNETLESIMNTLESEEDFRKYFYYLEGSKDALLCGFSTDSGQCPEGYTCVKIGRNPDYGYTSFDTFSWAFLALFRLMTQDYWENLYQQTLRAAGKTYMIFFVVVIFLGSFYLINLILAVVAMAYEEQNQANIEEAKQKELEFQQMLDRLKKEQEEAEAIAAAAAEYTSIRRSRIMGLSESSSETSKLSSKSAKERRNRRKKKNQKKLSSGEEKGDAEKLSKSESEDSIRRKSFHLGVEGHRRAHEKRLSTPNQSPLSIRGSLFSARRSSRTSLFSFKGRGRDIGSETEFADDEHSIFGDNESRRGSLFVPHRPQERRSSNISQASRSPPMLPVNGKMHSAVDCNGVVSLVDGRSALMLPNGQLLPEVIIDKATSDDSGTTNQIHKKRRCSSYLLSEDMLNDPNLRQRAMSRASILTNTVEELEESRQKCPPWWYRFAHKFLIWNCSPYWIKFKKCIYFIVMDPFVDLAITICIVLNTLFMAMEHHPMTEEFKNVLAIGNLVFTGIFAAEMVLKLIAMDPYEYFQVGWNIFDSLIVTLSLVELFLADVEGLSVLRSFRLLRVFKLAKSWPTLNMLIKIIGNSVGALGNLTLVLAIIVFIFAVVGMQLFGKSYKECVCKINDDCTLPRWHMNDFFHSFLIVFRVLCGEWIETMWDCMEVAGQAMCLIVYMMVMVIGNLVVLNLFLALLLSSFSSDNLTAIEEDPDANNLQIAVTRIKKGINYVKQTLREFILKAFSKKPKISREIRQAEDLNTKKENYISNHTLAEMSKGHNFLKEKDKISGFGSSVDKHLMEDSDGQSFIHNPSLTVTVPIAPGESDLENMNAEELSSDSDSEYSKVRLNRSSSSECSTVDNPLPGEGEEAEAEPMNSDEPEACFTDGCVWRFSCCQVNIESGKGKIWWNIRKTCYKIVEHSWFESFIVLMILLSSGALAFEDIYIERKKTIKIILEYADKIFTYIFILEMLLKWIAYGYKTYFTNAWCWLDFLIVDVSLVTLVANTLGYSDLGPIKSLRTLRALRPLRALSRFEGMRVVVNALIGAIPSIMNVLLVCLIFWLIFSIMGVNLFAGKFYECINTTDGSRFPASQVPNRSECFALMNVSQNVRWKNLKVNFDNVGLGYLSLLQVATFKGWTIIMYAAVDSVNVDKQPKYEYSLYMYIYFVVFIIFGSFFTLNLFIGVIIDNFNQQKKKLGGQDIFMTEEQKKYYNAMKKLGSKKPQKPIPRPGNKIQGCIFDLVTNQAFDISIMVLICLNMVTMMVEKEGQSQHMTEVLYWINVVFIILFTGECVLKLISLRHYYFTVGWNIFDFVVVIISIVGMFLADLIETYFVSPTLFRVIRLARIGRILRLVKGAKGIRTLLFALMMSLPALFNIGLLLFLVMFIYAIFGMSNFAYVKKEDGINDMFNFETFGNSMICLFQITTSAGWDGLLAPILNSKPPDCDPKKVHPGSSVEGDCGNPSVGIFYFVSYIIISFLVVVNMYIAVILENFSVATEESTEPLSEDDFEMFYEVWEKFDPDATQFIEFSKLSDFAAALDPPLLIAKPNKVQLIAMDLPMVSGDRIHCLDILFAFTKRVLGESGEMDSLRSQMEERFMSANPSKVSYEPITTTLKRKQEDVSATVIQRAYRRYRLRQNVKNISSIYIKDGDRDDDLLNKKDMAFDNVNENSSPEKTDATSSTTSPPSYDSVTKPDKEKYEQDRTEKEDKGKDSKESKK
T2 sequence (Q07699 19-218, further chain): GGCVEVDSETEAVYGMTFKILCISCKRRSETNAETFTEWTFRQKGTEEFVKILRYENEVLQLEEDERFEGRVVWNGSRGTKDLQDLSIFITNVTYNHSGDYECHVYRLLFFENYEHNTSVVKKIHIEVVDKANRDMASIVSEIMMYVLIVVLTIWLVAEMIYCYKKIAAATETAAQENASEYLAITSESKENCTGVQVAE

`CC[C@H](C)[C@@H]1NC(=O)[C@H](CCCNC(=N)N)NC(=O)[C@H](Cc2ccccc2)NC(=O)[C@H](CC(C)C)NC(=O)[C@H](CO)NC(=O)[C@@H]2CSSC[C@@H]3NC(=O)[C@H]([C@@H](C)O)NC(=O)[C@H](CSSC[C@H](NC(=O)[C@H](CCCNC(=N)N)NC(=O)[C@@H]4CCCN4C(=O)[C@H](CC(C)C)NC(=O)CCOCCOCCOCCOCCNC(=O)CCCC[C@@H]4SC[C@@H]5NC(=O)N[C@@H]54)C(=O)N[C@@H](CC(=O)O)C(=O)N[C@@H](CO)C(=O)N4CCC[C@H]4C(=O)N[C@@H](Cc4ccccc4)C(=O)N2)NC(=O)[C@H](CCCCN)NC(=O)[C@H](CC(=O)O)NC(=O)CNC(=O)[C@H](CSSC[C@@H](C(=O)N[C@H](C(=O)N2CCC[C@H]2C(=O)N[C@@H](CC(=O)O)C(=O)N[C@H](C(=O)O)C(C)C)C(C)C)NC(=O)[C@H](CC(C)C)NC(=O)CNC(=O)[C@H](Cc2ccccc2)NC(=O)[C@H]([C@@H](C)CC)NC(=O)[C@@H]2CCCN2C(=O)[C@H](CC(C)C)NC(=O)[C@@H]2CCCN2C(=O)[C@H](C(C)C)NC3=O)NC(=O)[C@H](CC(C)C)NC(=O)CNC1=O` [ExTxA-Biotin] ({Biotin-PEG4}-LPRCDSPFCSLFRIGLCGDKCTCVPLPIFGLCVPDV-OH; disulfide 4-21, 9-23, 17-32) was tested, and the Bottom (NaV1.7/TMEM233 [1]) was -0.001461, the HillSlope (NaV1.7/TMEM233 [1]) was 0.9303 and the LogEC50 (NaV1.7/TMEM233 [1]) was -6.256. The Span (NaV1.7/TMEM233 [1]) was 0.7803 and the Top (NaV1.7/TMEM233 [1]) was 0.7788.
In the case of BSA control, the “Tau Fast, individual values” (NaV1.7 [2]) is reported as 7.097 and 5.916 and 7.352 and 7.278 and 4.563 and 7.588 and 6.382 and 7.242 and 8.803 and the “Tau Fast, mean” value (NaV1.7 [2]) is reported as 6.913.
`COc1ccc(C(=O)O[C@H]2CC[C@@]3(C)[C@@H]4CC[C@H]5[C@]6(O)C[C@H](O)[C@@]7(O)[C@@H](CN8C[C@@H](C)CC[C@H]8[C@@]7(C)O)[C@]6(O)C[C@@]53O[C@]24O)cc1OC` [veratridine, reference compound] was tested, and the “cytotoxicity of the concentration used” value (TE-671 cells) was “non-cytotoxic”.
`C[C@@H]1O[C@@H](O[C@H]2C[C@@H](O)[C@]3(CO)[C@H]4[C@H](O)C[C@]5(C)[C@@H](C6=CC(=O)OC6)CC[C@]5(O)[C@@H]4CC[C@]3(O)C2)[C@H](O)[C@H](O)[C@H]1O` [ouabain, reference compound] was tested, and the “cytotoxicity of the concentration used” value (TE-671 cells) was “non-cytotoxic”.
For FLAG-NaV1.7, the “particles/cell, mean” value (NaV1.7/TMEM233 [3]; mean of n = 3) was 5.245 particles/cell, the particles/cell (NaV1.7/TMEM233 [3]; replicate 1) was 1.95 particles/cell and the particles/cell (NaV1.7/TMEM233 [3]; replicate 2) was 7.467 particles/cell. For the same compound, the particles/cell (NaV1.7/TMEM233 [3]; replicate 3) was 6.319 particles/cell.
`NC1=N[C@H](O)[C@H]2[C@H]3O[C@]4(O)O[C@@H]([C@@H](O)[C@@]2(N1)[C@@H]4O)[C@]3(O)CO` [TTX, tetrodotoxin, reference compound] was tested, and the “Mean Diff. of persistent current, ExTxA vs. ExTxA + TTX” value [4] was 0.2464, the “Mean Diff. of persistent current, ExTxA vs. ExTxA + TTX” value [5] was 0.5123 and the “Mean Diff. of persistent current, ExTxA vs. TTX” value (NaV1.7 [6]) was 0.1483.
For `CC[C@H](C)[C@@H]1NC(=O)[C@H](CCCNC(=N)N)NC(=O)[C@H](Cc2ccccc2)NC(=O)[C@H](CC(C)C)NC(=O)[C@H](CO)NC(=O)[C@@H]2CSSC[C@@H]3NC(=O)[C@H]([C@@H](C)O)NC(=O)[C@H](CSSC[C@H](NC(=O)[C@H](CCCNC(=N)N)NC(=O)[C@@H]4CCCN4C(=O)[C@H](CC(C)C)NC(=O)[C@@H](N)CCCCn4cc(CNC(=O)c5ccc(-c6c7ccc(=N)c(S(=O)(=O)O)c-7oc7c(S(=O)(=O)O)c(N)ccc67)c(C(=O)O)c5)nn4)C(=O)N[C@@H](CC(=O)O)C(=O)N[C@@H](CO)C(=O)N4CCC[C@H]4C(=O)N[C@@H](Cc4ccccc4)C(=O)N2)NC(=O)[C@H](CCCCN)NC(=O)[C@H](CC(=O)O)NC(=O)CNC(=O)[C@H](CSSC[C@@H](C(=O)N[C@H](C(=O)N2CCC[C@H]2C(=O)N[C@@H](CC(=O)O)C(=O)N[C@H](C(=O)O)C(C)C)C(C)C)NC(=O)[C@H](CC(C)C)NC(=O)CNC(=O)[C@H](Cc2ccccc2)NC(=O)[C@H]([C@@H](C)CC)NC(=O)[C@@H]2CCCN2C(=O)[C@H](CC(C)C)NC(=O)[C@@H]2CCCN2C(=O)[C@H](C(C)C)NC3=O)NC(=O)[C@H](CC(C)C)NC(=O)CNC1=O` [Alexa488-ExTxA], the HillSlope (NaV1.7/TMEM233 [7]) was 1.366, the LogEC50 (NaV1.7/TMEM233 [7]) was -6.833 and the Max fluorescence (NaV1.7/TMEM233 [7]; Alexa488-ExTxA 1 µM, NaV1.7/TMEM233, mean ± SEM, n = 3) was 38,799 ± 2471 AFU. The HillSlope (TMEM233) was 1.703, the LogEC50 (TMEM233) was -6.917 and the Max fluorescence (TMEM233; Alexa488-ExTxA 1 µM, TMEM233, mean ± SEM, n = 3) was 38,681 ± 951.2 AFU. It also gave a Bottom (NaV1.7/TMEM233 [1]) of 2.016e-5, a HillSlope (NaV1.7/TMEM233 [1]) of 1.084 and a LogEC50 (NaV1.7/TMEM233 [1]) of -7.29. The Span (NaV1.7/TMEM233 [1]) was 0.8012, the Top (NaV1.7/TMEM233 [1]) was 0.8013 and the Max fluorescence (HEK293 cells; Alexa488-ExTxA 1 µM, HEK293, mean ± SEM, n = 3) was 15,740 ± 2133 AFU. For the same compound, the HillSlope (HEK293 cells; Untransfected, four-parameter fit, Top = 1) was 0.9756, the LogEC50 (HEK293 cells; Untransfected, four-parameter fit, Top = 1, 95% CI -5.502 to -5.307) was -5.409 and the “Best-fit parameter Bottom” value (NaV1.7/TMEM233 [8]) was 0.00002. The “Best-fit parameter Hill slope” value (NaV1.7/TMEM233 [8]) was 1.084, the “Best-fit parameter Top” value (NaV1.7/TMEM233 [8]) was 0.8013 and the “functional activity of tagged ExTxA” value (NaV1.7/TMEM233 [8]) was “retained functional activity”. For the same compound, the Max fluorescence (NaV1.7 [9]; Alexa488-ExTxA 1 µM, NaV1.7, mean ± SEM, n = 3) was 20,583 ± 3970 AFU, the HillSlope (NaV1.7 [9]; Nav1.7, four-parameter fit, Top = 1) was 0.7934 and the LogEC50 (NaV1.7 [9]; Nav1.7, four-parameter fit, Top = 1, 95% CI -5.409 to -4.797) was -5.142.
In the case of “1-41 TMEM233 (MSQYAPSPDFKRALDSSPEANTEDDKTEEDVPMPKNYLWLT; UniProt B4DJY2 1-41, looked up, fragment)”, the “Tau Fast, difference between means (1-41 TMEM233 - BSA control) ± SEM” value (NaV1.7 [2]) is reported as 3.270 ± 1.361, the “Tau Fast, individual values” (NaV1.7 [2]) is reported as 5.876 and 7.835 and 7.406 and 14.82 and 9.055 and 12.01 and 6.932 and 17.51 and 10.21 and the “Tau Fast, mean” value (NaV1.7 [2]) is reported as 10.18.
